Data: ChEMBL document CHEMBL1147313, “Abrusosides A-D, four novel sweet-tasting triterpene glycosides from the leaves of Abrus precatorius” (J Nat Prod, 1989)

What follows are compounds tested on Mus musculus (assay: Acute toxicity in Swiss-Webster mouse at 1 g/kg, po). Details: in vivo, 1000 mg/kg.
Format: organism-based
`CC1=CC[C@@H]([C@@H](C)[C@H]2CC[C@@]3(C)[C@@H]4CC[C@H]5[C@](C)(C(=O)O)[C@@H](O[C@@H]6O[C@H](CO)[C@@H](O)[C@H](O)[C@H]6O)CC[C@@]56C[C@@]46CC[C@]23C)OC1=O` [ABRUSOSIDE A] was tested, and the Activity was “Non-toxic”.
In the case of `COC(=O)[C@H]1O[C@@H](O[C@H]2[C@H](O[C@H]3CC[C@]45C[C@]46CC[C@]4(C)[C@@H]([C@H](C)[C@@H]7CC=C(C)C(=O)O7)CC[C@@]4(C)[C@@H]6CC[C@H]5[C@]3(C)C(=O)O)O[C@H](CO)[C@@H](O)[C@@H]2O)[C@H](O)[C@@H](O)[C@@H]1O` [ABRUSOSIDE B], the Activity is reported as “Non-toxic”.
For `CC1=CC[C@@H]([C@@H](C)[C@H]2CC[C@@]3(C)[C@@H]4CC[C@H]5[C@](C)(C(=O)O)[C@@H](O[C@@H]6O[C@H](CO)[C@@H](O)[C@H](O)[C@H]6O[C@@H]6O[C@H](CO)[C@@H](O)[C@H](O)[C@H]6O)CC[C@@]56C[C@@]46CC[C@]23C)OC1=O` [ABRUSOSIDE C], the Activity was “Non-toxic”.
In the case of `CC1=CC[C@@H]([C@@H](C)[C@H]2CC[C@@]3(C)[C@@H]4CC[C@H]5[C@](C)(C(=O)O)[C@@H](O[C@@H]6O[C@H](CO)[C@@H](O)[C@H](O)[C@H]6O[C@@H]6O[C@H](C(=O)O)[C@@H](O)[C@H](O)[C@H]6O)CC[C@@]56C[C@@]46CC[C@]23C)OC1=O` [ABRUSOSIDE D], the Activity is reported as “Non-toxic”.
